Data reported in ChEMBL document CHEMBL4052712, “Design and optimization of highly-selective, broad spectrum fungal CYP51 inhibitors” (Bioorg Med Chem Lett, 2017).
pIC50: −log10 of the molar value. Activity calls are given as the source filed them. No cut-off for these calls is given here.

Legend:
[1] = target: Lanosterol 14-alpha demethylase (Candida albicans (strain SC5314 / ATCC MYA-2876) (Yeast), UniProt P10613); assay: Inhibition of CYP51 in Candida albicans assessed as inhibition of microbe growth incubated for 48 hrs by CLSI M27-A3 guideline based method
Cytochrome P450 3A4 = Cytochrome P450 3A4 (Homo sapiens, UniProt P08684); assay: Inhibition of CYP3A4 in human hepatocyte microsomes using testosterone substrate by HPLC/MS/MS method; type: ADME
[2] = target: Lanosterol 14-alpha demethylase (Aspergillus) (UniProt B8NUK6+Q9P8R0+G4WW85); assay: Inhibition of CYP51 in Aspergillus fumigatus assessed as inhibition of microbe growth incubated for 48 to 168 hrs by CLSI M27-A3 guideline based method

Sequence of Lanosterol 14-alpha demethylase (P10613 whole entry): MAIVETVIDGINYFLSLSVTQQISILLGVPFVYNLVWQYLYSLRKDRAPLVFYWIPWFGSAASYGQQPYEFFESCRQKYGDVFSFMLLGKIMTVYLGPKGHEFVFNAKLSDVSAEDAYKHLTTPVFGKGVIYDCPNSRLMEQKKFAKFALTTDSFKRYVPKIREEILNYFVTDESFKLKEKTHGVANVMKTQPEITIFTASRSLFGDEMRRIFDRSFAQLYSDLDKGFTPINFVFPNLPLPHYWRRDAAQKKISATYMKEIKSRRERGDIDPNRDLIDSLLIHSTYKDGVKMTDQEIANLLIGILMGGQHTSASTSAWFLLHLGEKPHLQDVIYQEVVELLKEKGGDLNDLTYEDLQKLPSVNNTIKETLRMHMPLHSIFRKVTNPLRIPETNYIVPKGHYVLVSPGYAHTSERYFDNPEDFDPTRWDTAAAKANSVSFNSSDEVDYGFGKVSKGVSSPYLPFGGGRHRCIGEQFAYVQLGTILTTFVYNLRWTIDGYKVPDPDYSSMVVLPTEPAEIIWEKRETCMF
Sequence of Cytochrome P450 3A4 (P08684 whole entry): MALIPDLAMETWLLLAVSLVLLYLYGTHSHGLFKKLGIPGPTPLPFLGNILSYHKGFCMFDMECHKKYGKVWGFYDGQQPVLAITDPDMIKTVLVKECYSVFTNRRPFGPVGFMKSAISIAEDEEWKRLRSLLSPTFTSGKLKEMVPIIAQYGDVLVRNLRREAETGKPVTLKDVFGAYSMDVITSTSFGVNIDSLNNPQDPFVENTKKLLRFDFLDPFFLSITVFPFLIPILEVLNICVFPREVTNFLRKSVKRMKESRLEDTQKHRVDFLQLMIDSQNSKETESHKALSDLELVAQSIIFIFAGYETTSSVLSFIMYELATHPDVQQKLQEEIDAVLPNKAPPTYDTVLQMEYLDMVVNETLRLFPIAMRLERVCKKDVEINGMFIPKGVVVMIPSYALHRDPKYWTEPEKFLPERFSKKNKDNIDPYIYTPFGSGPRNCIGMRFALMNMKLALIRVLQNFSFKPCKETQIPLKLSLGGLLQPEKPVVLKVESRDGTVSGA

MIC50 [1] | pIC50 (Cytochrome P450 3A4) | MIC100 [2] | Structure (SMILES)
0.016 µg/mL | < 3.70 | > 64 µg/mL | OC(Cn1cnnn1)(c1ccc(F)cc1F)C(F)(F)c1ccc(C#Cc2ccc(C(F)(F)F)cc2)cn1 (centres undefined)
< 0.001 µg/mL | 4.22 | 64 µg/mL | OC(Cn1cnnn1)(c1ccc(F)cc1F)C(F)(F)c1ccc(C#Cc2ccc(OCC(F)F)cc2)cn1 (centres undefined)
0.0625 µg/mL | < 3.70 | 32 µg/mL | OC(Cn1cnnn1)(c1ccc(F)cc1F)C(F)(F)c1ccc(C#Cc2ccc(OCc3ccc(F)cc3)cc2)cn1 (centres undefined)
0.016 µg/mL | < 3.70 | > 64 µg/mL | N#Cc1cccc(COc2ccc(C#Cc3ccc(C(F)(F)C(O)(Cn4cnnn4)c4ccc(F)cc4F)nc3)cc2)c1 (centres undefined)
0.031 µg/mL | 3.91 | > 64 µg/mL | CNC(=O)c1ccc(COc2ccc(C#Cc3ccc(C(F)(F)C(O)(Cn4cnnn4)c4ccc(F)cc4F)nc3)cc2)cc1 (centres undefined)
0.031 µg/mL | < 3.70 | > 64 µg/mL | OC(Cn1cnnn1)(c1ccc(F)cc1F)C(F)(F)c1ccc(C#Cc2cccc(Cl)c2)cn1 (centres undefined)
0.016 µg/mL | < 3.70 | > 64 µg/mL | N#Cc1ccc(COc2ccc(C#Cc3ccc(C(F)(F)C(O)(Cn4cnnn4)c4cc(F)ccc4F)nc3)cc2)cc1 (centres undefined)
0.25 µg/mL | < 3.70 | > 64 µg/mL | OC(Cn1cnnn1)(c1ccc(F)cc1F)C(F)(F)c1ccc(C#Cc2ccc(OCc3ccc(OC(F)(F)F)cc3)cc2)cn1 (centres undefined)
0.031 µg/mL | < 3.70 | > 64 µg/mL | N#Cc1ccc(COc2ccc(C#Cc3ccc(C(F)(F)C(O)(Cn4cnnn4)c4ccc(Cl)cc4F)nc3)cc2)cc1 (centres undefined)
0.031 µg/mL | < 3.70 | > 64 µg/mL | N#Cc1ccc(OCc2ccc(C#Cc3ccc(C(F)(F)C(O)(Cn4cnnn4)c4ccc(F)cc4F)nc3)cc2)cc1 (centres undefined)
0.004 µg/mL | < 3.70 | > 64 µg/mL | OC(Cn1cnnn1)(c1ccc(F)cc1F)C(F)(F)c1ccc(C#Cc2ccc(Cl)cc2)cn1 (centres undefined)
< 0.001 µg/mL | 5.00 | 4 µg/mL | OC(Cn1cnnn1)(c1ccc(F)cc1F)C(F)(F)c1ccc(C#Cc2ccc(NCC(F)(F)F)cc2)cn1 (centres undefined)
0.125 µg/mL | < 3.70 | > 64 µg/mL | OC(Cn1cnnn1)(c1ccc(F)cc1F)C(F)(F)c1ccc(C#Cc2ccc(OCc3ccc(C(F)(F)F)cc3)cc2)cn1 (centres undefined)
0.004 µg/mL | < 3.70 | > 64 µg/mL | OC(Cn1cnnn1)(c1ccc(F)cc1F)C(F)(F)c1ccc(C#Cc2cccc(F)c2)cn1 (centres undefined)
0.16 µg/mL | < 3.70 | > 64 µg/mL | N#Cc1ccc(COc2ccc(C#Cc3ccc(C(F)(F)C(O)(Cn4cnnn4)c4ccc(F)cc4F)nc3)cc2)c(F)c1 (centres undefined)
0.031 µg/mL | < 3.70 | – | OC(Cn1cnnn1)(c1ccc(F)cc1F)C(F)(F)c1ccc(C#Cc2ccc(OCc3ccc(CC(F)F)cc3)cc2)cn1 (single isomer, unassigned; (+)) [listing 1 of 2 here]

MIC50 [1] | pIC50 (Cytochrome P450 3A4) | MIC100 [2] | Structure (SMILES)
< 0.001 µg/mL | 3.70 | – | OC(Cn1cnnn1)(c1ccc(F)cc1F)C(F)(F)c1ccc(C#Cc2ccc(F)cc2)cn1 (single isomer, unassigned; (+)) [listing 1 of 2 here]
0.004 µg/mL | < 3.70 | – | N#Cc1ccc(COc2ccc(C#Cc3ccc(C(F)(F)C(O)(Cn4cnnn4)c4ccc(F)cc4F)nc3)cc2)cc1F (single isomer, unassigned; (+)) [listing 1 of 2 here]
– | – | 0.5 µg/mL | N#Cc1ccc(COc2ccc(C#Cc3ccc(C(F)(F)C(O)(Cn4cnnn4)c4ccc(F)cc4F)nc3)cc2)cc1F (single isomer, unassigned; (+)) [listing 2 of 2 here]
– | – | 16 µg/mL | OC(Cn1cnnn1)(c1ccc(F)cc1F)C(F)(F)c1ccc(C#Cc2ccc(F)cc2)cn1 (single isomer, unassigned; (+)) [listing 2 of 2 here]
– | – | 2 µg/mL | OC(Cn1cnnn1)(c1ccc(F)cc1F)C(F)(F)c1ccc(C#Cc2ccc(OCc3ccc(CC(F)F)cc3)cc2)cn1 (single isomer, unassigned; (+)) [listing 2 of 2 here]
– | – | inactive | OC(Cn1cnnn1)(c1ccc(F)cc1F)C(F)(F)c1ccc(C#Cc2ccc(F)cc2)cn1 (single isomer, unassigned; (-))
– | 4.00 | – | OC(Cn1cnnn1)(c1ccc(F)cc1F)C(F)(F)c1ccc(C#Cc2ccc(F)cc2)cn1 (stereo in doubt; 6a) [listing 1 of 2 here]
– | – | > 64 µg/mL | OC(Cn1cnnn1)(c1ccc(F)cc1F)C(F)(F)c1ccc(C#Cc2ccc(F)cc2)cn1 (stereo in doubt; 6a) [listing 2 of 2 here]
0.0625 µg/mL | < 3.70 | – | OC(Cn1cnnn1)(c1ccc(F)cc1F)C(F)(F)c1ccc(C#Cc2ccc(OCc3ccc(CC(F)F)cc3)cc2)cn1 (stereo in doubt; 7e) [listing 1 of 2 here]
– | – | 4 µg/mL | OC(Cn1cnnn1)(c1ccc(F)cc1F)C(F)(F)c1ccc(C#Cc2ccc(OCc3ccc(CC(F)F)cc3)cc2)cn1 (stereo in doubt; 7e) [listing 2 of 2 here]
0.031 µg/mL | < 3.70 | – | N#Cc1ccc(COc2ccc(C#Cc3ccc(C(F)(F)C(O)(Cn4cnnn4)c4ccc(F)cc4F)nc3)cc2)cc1 (stereo in doubt; 7f) [listing 1 of 2 here]
– | – | 8 µg/mL | N#Cc1ccc(COc2ccc(C#Cc3ccc(C(F)(F)C(O)(Cn4cnnn4)c4ccc(F)cc4F)nc3)cc2)cc1 (stereo in doubt; 7f) [listing 2 of 2 here]
0.031 µg/mL | < 3.70 | – | N#Cc1ccc(COc2ccc(C#Cc3ccc(C(F)(F)C(O)(Cn4cnnn4)c4ccc(F)cc4F)nc3)cc2)cc1F (stereo in doubt; 8a) [listing 1 of 2 here]
– | – | 1 µg/mL | N#Cc1ccc(COc2ccc(C#Cc3ccc(C(F)(F)C(O)(Cn4cnnn4)c4ccc(F)cc4F)nc3)cc2)cc1F (stereo in doubt; 8a) [listing 2 of 2 here]
< 0.001 µg/mL | 4.19 | > 64 µg/mL | O[C@@](Cn1cnnn1)(c1ccc(F)cc1F)C(F)(F)c1ccc(-c2ccc(OCC(F)(F)F)cc2)cn1 [OTESECONAZOLE]
